# According to ChEMBL document CHEMBL1201862, “PubChem BioAssay data set” (2004):
# Activity calls are given as the source filed them. Cut-off read from the data, not from the text of the source, for most assays here: actives have a measured EC50 and inactives only a lower limit.
# What was measured:
# [1] = NIH-3T3 fibroblast cytotoxicity, dose response, cytotoxicity control, cell-based, fluorescence, Alamar Blue, secondary assay (AID 2327); type: functional;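 note: NIH-3T3 mouse fibroblasts cultured with fluconazole at 8 µg/mL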
# [2] = system: Streptococcus sp. 'group A'; test: Streptococcus pyogenes SK(-)GAS viability under kanamycin – luminescence, BacTiterGlo, confirmation, counter-screen for streptokinase expression inhibitor project, dose response (AID 1900); type: functional, organism-based
# BJ [3] = test: BJ-TERT fibroblast viability loss – cell-based, RAS-independent, luminescence, dose response (AID 1933); type: functional; settings: Homo sapiens
# Beta-galactosidase = Beta-galactosidase (Escherichia coli, UniProt Q8VNN2); test: PubChem AID 485352; type: functional
# Streptokinase A = molecular target: T1, Streptokinase A (Streptococcus pyogenes serotype M1, UniProt P10520); test: viability-normalized secreted streptokinase activity reduction – plasminogen activation absorbance, OD405, dose response (AID 1914); type: functional, Streptococcus pyogenes M1 GAS;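 note: secreted streptokinase activity via plasminogen activation per viability signal from cell pellet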
# T1 sequence (P10520 whole entry): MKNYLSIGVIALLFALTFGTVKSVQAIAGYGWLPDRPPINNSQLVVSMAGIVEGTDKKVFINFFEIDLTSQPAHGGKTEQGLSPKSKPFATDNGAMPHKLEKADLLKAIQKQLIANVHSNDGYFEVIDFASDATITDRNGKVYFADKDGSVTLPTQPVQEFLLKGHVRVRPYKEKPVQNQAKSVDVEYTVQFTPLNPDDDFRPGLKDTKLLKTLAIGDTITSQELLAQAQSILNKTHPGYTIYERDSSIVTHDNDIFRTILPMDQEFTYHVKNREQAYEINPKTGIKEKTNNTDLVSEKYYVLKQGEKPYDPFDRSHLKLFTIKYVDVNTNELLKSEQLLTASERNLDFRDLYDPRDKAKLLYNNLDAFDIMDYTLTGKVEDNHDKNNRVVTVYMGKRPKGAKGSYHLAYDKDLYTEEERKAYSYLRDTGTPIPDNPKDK
# BJ [4] = test: cells; type: functional, cell-based; settings: Homo sapiens
# [5] = fluconazole-exposed Candida albicans growth modulators – fluorescence, retest, confirmation (AID 2467); type: functional, cell-based
# [6] = molecular target: Type-1 angiotensin II receptor (Homo sapiens, UniProt P30556); test: antagonism of angiotensin II type 1 receptor – cell-based, uHTS hits, selectivity assay for APJ receptor antagonist project, dose response (AID 463214); type: functional;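 note: antagonist potency against angiotensin II stimulated AT1 response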
# [7] = molecular target: Serine/threonine-protein phosphatase (Candida dubliniensis (strain CD36 / CBS 7987 / NCPF 3949 / NRRLY-17841) (Yeast), UniProt B9W6M3); test: blockers of CaCl2-induced CDRE-lacZ signaling – S. cerevisiae, luminescence, secondary, dose response (AID 2388); type: functional, cell-based;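 note: yeast reporter cells carrying a calcineurin-responsive lacZ construct stimulated with calcium chloride; luminescent beta-galactosidase reporter signal in whole cells rather than isolated phosphatase activity; potency for inhibition where a drop in reporter signal means calcineurin blockade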
# BJ [8] = test: BJ-TERT-LT-ST fibroblast viability loss – cell-based, RAS-independent, luminescence, dose response (AID 1935); type: functional; settings: Homo sapiens;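 note: BJ fibroblasts immortalized with TERT plus LT and ST oncogenes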
# [9] = DRD fibroblast viability loss – cell-based, non-viral oncogenic, luminescence, dose response (AID 1934); type: functional; settings: Homo sapiens
# Streptococcus = test: GAS UMAA2166 growth inhibition – luminescence, BacTiterGlo, counter-screen for streptokinase expression inhibitor project, dose response (AID 1915); type: functional, organism-based;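 note: potency for reduction of bacterial viability or growth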
# [10] = molecular target: Intestinal-type alkaline phosphatase (Homo sapiens, UniProt P09923); test: activation of human intestinal alkaline phosphatase – biochemical, dose response (AID 488873); type: functional
# [11] = molecular target: Beta-adrenergic receptor kinase 1 (Homo sapiens, UniProt P25098); test: aptamer displacement from bead-bound GRK2 – biochemical, cherry pick 1, bead flow cytometry, dose response (AID 504500)
# [12] = HEK-293T viability loss after treatment – luminescence, T-cell screen hits, cytotoxicity control for TCR NF-kB inhibitor project, dose response (AID 489026); type: functional, cell-based;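 note: cells exposed to compound about 14 hours before the viability readout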
# [13] = molecular target: Intestinal-type alkaline phosphatase (Mus musculus, UniProt P24822); test: mouse intestinal alkaline phosphatase activators, dose response, biochemical, luminescence, uHTS hits (AID 488783); type: functional
# [14] = molecular target: T2, Alkaline phosphatase, tissue-nonspecific isozyme (Homo sapiens, UniProt P05186); test: activation of tissue-nonspecific alkaline phosphatase – biochemical, TNAP isozyme, mouse IAP uHTS hits, selectivity assay for mouse IAP activator project, dose response (AID 488880); type: functional
# T2 sequence (P05186 whole entry): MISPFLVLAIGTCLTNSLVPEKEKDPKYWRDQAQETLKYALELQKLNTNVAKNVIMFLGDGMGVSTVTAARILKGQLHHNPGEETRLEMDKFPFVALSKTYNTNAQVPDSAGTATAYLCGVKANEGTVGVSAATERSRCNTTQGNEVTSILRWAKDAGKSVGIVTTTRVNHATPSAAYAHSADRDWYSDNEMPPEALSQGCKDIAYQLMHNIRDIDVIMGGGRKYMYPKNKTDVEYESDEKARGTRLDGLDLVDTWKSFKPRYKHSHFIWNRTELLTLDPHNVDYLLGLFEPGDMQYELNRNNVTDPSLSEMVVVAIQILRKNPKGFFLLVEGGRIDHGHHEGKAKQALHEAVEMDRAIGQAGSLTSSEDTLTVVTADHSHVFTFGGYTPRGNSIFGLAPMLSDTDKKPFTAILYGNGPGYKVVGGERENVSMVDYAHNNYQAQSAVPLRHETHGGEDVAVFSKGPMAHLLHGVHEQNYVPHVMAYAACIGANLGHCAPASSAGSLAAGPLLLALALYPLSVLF
# [15] = molecular target: T3, Apoptotic protease-activating factor 1 (Homo sapiens, UniProt O14727); type: functional
# T3 sequence (O14727 whole entry): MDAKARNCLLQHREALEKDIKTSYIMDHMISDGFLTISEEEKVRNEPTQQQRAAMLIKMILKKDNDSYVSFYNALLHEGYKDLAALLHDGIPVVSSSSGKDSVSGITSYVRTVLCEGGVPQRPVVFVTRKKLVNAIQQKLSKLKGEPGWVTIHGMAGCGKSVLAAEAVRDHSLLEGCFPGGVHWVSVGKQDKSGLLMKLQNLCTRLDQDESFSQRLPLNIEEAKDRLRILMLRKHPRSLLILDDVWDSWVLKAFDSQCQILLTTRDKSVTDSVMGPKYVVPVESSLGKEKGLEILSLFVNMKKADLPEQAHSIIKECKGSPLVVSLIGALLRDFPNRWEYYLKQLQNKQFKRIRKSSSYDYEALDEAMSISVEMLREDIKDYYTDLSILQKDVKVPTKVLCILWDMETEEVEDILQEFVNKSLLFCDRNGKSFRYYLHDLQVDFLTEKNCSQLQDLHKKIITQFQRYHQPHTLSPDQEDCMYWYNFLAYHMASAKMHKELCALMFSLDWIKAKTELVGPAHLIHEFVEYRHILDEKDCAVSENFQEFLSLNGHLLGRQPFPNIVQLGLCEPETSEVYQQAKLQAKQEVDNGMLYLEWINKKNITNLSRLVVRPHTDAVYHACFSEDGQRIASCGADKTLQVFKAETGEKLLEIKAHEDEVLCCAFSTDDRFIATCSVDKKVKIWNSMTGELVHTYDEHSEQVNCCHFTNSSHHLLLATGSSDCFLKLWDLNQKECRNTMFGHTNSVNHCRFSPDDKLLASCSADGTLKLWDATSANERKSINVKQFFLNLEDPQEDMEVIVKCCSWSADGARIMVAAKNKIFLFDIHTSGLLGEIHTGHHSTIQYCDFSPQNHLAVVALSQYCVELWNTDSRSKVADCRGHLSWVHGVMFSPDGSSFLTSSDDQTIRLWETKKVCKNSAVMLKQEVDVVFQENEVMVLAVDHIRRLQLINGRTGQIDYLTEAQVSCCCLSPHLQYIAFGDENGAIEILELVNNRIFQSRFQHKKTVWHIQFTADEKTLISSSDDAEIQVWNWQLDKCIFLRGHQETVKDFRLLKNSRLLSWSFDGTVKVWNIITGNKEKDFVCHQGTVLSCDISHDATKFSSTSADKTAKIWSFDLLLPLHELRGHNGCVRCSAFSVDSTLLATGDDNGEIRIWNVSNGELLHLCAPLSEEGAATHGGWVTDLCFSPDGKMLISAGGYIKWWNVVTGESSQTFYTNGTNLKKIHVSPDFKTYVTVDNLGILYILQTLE
# BJ [16] = test: growth inhibition of engineered Ras-driven BJ cells – cell-based, alamar blue fluorescence, cherrypicked samples, dose response (AID 2631); type: functional; settings: Homo sapiens;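 note: confirmatory dose-response assay in RAS-dependent BJ fibroblasts engineered with TERT, LT and ST, with cytotoxicity read by fluorescence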
# INS1 = test: INS-1E survival protection against cytokine death – cell-based, luminescence, retest, dose response (AID 449756); type: functional; settings: Rattus norvegicus;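 note: cell death triggered by IL-1 beta plus TNF-alpha plus IFN-gamma mixture; protective hits raise ATP signal compared with cytokine alone wells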
# [17] = molecular target: ATP-dependent molecular chaperone HSP82 (Candida albicans (strain WO-1) (Yeast), UniProt C4YTQ8); test: steroid-induced GRE reporter decrease in yeast – S. cerevisiae, luminescence, Hsp90 inhibitor project, dose response (AID 2400); type: functional, cell-based;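 note: beta-galactosidase luminescence from glucocorticoid response element reporter as proxy for Hsp90 function; inhibitor potency where signal loss means Hsp90 inhibition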
# [18] = luciferase reporter signal suppression in cells – H4 neuroglioma cells, luminescence, dose response (AID 1990); type: functional, cell-based
# [19] = Luminescence Cell-Based Dose Response HTS to Identify Inhibitors of 5'UTR Stem-Loop Driven Prion Protein mRNA Translation in H4 Neuroglioblastoma Cells. [Related pubchem assays: 1827 (Project Summary), 1813 (Primary HTS)]; type: functional
# [20] = alpha-synuclein stem-loop luciferase translation blockers – H4 neuroglioma cells, luminescence, confirmation (AID 1988); type: functional, cell-based
# HEK293 = test: EBV LMP1 TES2 canonical NF-kB signalling blockers – cell-based, HEK293, luciferase, cherry-pick, dose response (AID 588343); type: functional; settings: Homo sapiens
# [21] = molecular target: Sphingosine 1-phosphate receptor 2 (Homo sapiens, UniProt O95136); test: Late-stage fluorescence-based dose-response cell-based counterscreen assay to identify agonists of the Sphingosine 1-Phosphate Receptor 3 (S1P3): Sphingosine 1-Phosphate Receptor 2 (S1P2) agonist assay.; type: functional
# [22] = molecular target: T4, Sphingosine 1-phosphate receptor 4 (Homo sapiens, UniProt O95977); test: Late-stage fluorescence-based dose-response cell-based counterscreen assay to identify agonists of the Sphingosine 1-Phosphate Receptor 3 (S1P3): Sphingosine 1-Phosphate Receptor 4 (S1P4) agonist assay.; type: functional
# T4 sequence (O95977 whole entry): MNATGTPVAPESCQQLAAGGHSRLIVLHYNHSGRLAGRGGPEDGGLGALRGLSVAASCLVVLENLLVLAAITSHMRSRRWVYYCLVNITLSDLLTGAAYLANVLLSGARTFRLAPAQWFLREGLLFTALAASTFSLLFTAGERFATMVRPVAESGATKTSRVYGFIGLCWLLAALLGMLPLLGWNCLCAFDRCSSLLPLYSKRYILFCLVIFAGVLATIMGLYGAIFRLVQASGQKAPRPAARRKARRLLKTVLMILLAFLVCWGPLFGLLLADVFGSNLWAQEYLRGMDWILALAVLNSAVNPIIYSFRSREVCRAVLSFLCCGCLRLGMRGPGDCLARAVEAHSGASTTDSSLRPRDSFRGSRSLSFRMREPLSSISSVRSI
# [23] = molecular target: 26S proteasome non-ATPase regulatory subunit 14 (Homo sapiens, UniProt O00487); test: inhibition of proteasome subunit RPN11 – biochemical, fluorescence polarization, uHTS hits, confirmation (AID 602368); type: functional
# [24] = molecular target: 72 kDa type IV collagenase (Homo sapiens, UniProt P08253); test: Dose Response validation of uHTS RPN11 inhibitor hits using a MMP-2 Fluorescence assay.; type: functional
# Prothrombin = Prothrombin (Bos taurus, UniProt P00735); test: thrombin protease inhibitors – biochemical, fluorescence polarization, uHTS hits, dose response (AID 602369); type: functional
# Chain of 72 kDa type IV collagenase (P08253 whole entry): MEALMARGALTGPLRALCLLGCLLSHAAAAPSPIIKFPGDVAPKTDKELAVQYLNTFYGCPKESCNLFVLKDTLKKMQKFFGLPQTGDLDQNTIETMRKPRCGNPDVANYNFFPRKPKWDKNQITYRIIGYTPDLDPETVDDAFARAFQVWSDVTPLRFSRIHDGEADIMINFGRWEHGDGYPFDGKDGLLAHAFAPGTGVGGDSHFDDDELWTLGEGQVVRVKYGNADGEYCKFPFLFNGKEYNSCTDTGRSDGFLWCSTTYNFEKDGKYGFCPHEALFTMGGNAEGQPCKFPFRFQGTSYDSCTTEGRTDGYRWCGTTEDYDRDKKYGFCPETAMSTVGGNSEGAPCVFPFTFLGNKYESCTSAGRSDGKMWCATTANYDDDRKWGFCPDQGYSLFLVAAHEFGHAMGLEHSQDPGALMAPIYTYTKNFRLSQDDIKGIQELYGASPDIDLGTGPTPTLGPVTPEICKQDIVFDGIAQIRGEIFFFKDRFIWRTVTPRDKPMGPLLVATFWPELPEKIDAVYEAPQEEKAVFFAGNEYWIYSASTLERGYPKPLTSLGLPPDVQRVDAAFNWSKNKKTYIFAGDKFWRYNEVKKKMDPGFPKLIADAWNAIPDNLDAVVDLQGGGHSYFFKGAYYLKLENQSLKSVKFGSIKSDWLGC
# Chain of Intestinal-type alkaline phosphatase (Homo sapiens, UniProt P09923) (P09923 whole entry): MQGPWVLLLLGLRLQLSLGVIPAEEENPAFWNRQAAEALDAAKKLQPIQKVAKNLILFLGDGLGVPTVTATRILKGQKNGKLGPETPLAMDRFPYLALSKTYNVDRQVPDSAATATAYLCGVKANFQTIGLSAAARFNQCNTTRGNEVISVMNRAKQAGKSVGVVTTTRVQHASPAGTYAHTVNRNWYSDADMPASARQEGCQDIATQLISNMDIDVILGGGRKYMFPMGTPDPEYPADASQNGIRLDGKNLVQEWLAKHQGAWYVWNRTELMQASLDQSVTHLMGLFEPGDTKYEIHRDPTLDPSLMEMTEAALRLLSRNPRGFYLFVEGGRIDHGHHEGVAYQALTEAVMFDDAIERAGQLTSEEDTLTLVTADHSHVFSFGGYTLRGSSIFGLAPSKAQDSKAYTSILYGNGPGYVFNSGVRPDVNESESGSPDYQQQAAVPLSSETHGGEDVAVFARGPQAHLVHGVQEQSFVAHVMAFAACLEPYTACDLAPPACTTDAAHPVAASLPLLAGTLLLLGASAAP
# Chain of Beta-galactosidase (Q8VNN2 whole entry): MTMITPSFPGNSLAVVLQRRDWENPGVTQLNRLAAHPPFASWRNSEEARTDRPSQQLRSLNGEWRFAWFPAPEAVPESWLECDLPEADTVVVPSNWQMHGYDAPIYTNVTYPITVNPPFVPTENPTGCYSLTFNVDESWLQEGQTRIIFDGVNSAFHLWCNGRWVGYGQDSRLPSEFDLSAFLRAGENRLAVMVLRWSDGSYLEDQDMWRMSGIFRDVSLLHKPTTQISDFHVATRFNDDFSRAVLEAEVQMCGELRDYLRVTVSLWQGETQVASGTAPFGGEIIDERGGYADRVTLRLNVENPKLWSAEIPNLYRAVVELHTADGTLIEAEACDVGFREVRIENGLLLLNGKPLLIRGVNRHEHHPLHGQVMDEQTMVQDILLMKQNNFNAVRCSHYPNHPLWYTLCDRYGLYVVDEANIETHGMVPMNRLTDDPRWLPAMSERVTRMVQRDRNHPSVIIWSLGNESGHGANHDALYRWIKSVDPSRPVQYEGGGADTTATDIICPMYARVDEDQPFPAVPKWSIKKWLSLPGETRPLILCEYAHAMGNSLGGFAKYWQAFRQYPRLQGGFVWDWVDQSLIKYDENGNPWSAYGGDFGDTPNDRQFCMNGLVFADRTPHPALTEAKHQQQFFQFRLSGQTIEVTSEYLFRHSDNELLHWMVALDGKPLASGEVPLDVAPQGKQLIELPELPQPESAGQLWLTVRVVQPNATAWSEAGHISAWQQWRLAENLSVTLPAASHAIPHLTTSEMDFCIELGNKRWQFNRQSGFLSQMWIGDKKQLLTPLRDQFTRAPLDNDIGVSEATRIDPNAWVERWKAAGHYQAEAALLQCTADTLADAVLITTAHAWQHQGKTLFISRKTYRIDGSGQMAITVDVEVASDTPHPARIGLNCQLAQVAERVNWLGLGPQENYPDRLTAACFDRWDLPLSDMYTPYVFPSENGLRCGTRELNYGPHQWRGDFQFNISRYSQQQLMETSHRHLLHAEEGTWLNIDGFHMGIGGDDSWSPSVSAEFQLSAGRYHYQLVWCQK
# Chain of Sphingosine 1-phosphate receptor 2 (O95136 whole entry): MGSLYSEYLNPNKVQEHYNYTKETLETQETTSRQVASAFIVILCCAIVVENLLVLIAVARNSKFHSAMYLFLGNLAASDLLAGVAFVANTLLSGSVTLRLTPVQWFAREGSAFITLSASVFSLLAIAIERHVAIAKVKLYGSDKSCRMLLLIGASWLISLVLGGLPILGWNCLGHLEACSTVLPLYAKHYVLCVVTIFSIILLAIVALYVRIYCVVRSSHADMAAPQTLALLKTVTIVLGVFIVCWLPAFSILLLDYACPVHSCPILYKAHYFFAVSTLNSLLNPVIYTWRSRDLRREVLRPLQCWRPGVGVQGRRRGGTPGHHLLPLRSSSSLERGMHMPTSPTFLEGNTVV
# Chain of ATP-dependent molecular chaperone HSP82 (C4YTQ8 whole entry): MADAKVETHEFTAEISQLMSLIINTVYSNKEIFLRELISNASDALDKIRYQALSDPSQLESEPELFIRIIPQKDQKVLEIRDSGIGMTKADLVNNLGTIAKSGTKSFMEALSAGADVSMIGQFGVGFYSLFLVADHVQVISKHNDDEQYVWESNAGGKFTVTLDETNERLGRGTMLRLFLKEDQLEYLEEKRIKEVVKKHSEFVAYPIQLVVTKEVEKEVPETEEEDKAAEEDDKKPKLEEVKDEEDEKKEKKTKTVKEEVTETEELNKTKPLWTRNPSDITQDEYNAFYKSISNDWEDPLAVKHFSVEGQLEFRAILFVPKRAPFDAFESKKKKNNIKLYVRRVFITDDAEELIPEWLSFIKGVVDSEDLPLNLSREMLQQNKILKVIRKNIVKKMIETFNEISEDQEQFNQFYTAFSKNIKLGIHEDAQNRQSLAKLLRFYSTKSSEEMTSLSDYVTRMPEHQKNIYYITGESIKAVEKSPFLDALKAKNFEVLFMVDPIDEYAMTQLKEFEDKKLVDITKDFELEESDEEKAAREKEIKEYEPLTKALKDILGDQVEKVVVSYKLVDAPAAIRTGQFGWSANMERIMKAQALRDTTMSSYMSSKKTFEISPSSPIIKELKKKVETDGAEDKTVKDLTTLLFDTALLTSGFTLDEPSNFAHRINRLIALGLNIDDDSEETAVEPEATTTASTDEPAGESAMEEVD
# Chain of Beta-adrenergic receptor kinase 1 (P25098 whole entry): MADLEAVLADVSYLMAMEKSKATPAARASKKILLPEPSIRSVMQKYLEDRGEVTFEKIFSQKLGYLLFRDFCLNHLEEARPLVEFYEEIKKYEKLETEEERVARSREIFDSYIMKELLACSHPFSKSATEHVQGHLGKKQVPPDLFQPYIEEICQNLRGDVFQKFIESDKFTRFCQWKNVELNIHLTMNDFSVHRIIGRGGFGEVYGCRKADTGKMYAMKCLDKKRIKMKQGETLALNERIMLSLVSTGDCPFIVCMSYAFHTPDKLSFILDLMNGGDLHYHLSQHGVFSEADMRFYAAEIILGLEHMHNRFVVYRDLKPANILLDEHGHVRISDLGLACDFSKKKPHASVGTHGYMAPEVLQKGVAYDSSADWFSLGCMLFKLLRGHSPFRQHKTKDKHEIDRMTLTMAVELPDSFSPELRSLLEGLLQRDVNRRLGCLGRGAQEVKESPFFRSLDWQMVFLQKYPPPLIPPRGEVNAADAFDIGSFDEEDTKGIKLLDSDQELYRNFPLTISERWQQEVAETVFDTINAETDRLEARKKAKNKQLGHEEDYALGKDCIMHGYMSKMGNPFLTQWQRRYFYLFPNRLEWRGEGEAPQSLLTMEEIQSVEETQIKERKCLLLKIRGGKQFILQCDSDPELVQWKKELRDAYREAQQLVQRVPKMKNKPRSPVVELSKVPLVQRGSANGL
# Chain of 26S proteasome non-ATPase regulatory subunit 14 (O00487 whole entry): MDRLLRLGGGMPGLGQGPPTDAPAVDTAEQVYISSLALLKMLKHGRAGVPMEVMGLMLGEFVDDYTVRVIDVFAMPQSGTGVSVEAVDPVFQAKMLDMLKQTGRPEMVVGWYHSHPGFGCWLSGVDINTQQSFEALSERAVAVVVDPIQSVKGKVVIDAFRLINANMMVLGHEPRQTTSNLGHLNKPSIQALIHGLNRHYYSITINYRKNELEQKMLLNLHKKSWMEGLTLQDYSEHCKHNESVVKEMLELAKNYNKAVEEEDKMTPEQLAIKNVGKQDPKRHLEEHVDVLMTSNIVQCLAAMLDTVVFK
# Chain of Intestinal-type alkaline phosphatase (Mus musculus, UniProt P24822) (P24822 whole entry): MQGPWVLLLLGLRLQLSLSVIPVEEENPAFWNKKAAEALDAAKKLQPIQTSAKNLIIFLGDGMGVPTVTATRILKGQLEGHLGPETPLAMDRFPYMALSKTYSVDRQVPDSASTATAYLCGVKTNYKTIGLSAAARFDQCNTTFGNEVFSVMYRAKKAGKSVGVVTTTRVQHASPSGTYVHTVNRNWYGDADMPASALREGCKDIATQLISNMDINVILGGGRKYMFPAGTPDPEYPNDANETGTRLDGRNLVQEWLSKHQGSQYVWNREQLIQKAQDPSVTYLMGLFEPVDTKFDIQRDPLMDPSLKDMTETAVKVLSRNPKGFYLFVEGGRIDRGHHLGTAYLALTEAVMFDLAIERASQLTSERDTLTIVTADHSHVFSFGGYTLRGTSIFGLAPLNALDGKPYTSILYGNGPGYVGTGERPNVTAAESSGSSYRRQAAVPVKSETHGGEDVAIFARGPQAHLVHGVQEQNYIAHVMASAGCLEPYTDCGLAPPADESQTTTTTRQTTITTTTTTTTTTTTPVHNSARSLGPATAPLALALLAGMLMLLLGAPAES
compound,measurement,setting,value
CCN1/C(=C/c2ccc3cc(C)ccc3[n+]2CC)Sc2ccc3sccc3c21,EC50,[1],21.1 µM (active)
same,EC50,[2],3.29 µM (active)
same,EC50,BJ [3],1.17 µM (inconclusive)
same,EC50,Beta-galactosidase,> 40 µM (inactive)
same,EC50,Streptokinase A,> 150 µM (not active)
same,EC50,BJ [4],0.966 µM (inconclusive)
same,EC50,[5],0.046 µM (active)
same,IC50,[6],> 40 µM (not active)
same,EC50,[7],> 180 µM (inactive)
same,EC50,BJ [8],1.23 µM (inconclusive)
same,EC50,[9],1.45 µM (inconclusive)
same,EC50,Streptococcus,4.44 µM (active)
same,EC50,[10],61.8 µM (active)
same,EC50,[11],0.12 µM (active)
same,IC50,[12],> 80 µM (inactive)
same,EC50,[13],35.5 µM (active)
same,EC50,[14],60.6 µM (active)
same,IC50,[15],> 100 µM (inactive)
same,EC50,BJ [16],0.37 µM (inconclusive)
same,AC50,INS1,< 0.195 µM (active)
same,EC50,[17],32 µM (active)
COc1ccc(Nc2oc(COc3ccccc3OC)nc2C#N)cc1,EC50,[18],7.69 µM (active)
same,EC50,[19],11 µM (active)
same,EC50,[20],6.17 µM (active)
same,AC50,HEK293,6.17 µM (active)
O=C(c1cc(C2CC2)on1)N(C1CCCCC1)C1CCCC1,EC50,[21],> 50 µM (inactive)
same,EC50,[22],> 50 µM (inactive)
COc1cc(NC(=O)CCn2c(=S)[nH]c3ccccc3c2=O)cc(OC)c1OC,IC50,[23],74.1 µM (active)
same,IC50,[24],4.5 µM (active)
same,IC50,Prothrombin,> 100 µM (inactive)
